Laboratory results: PubChem BioAssay (NCI)
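Cultured in 96-well plates, cells were exposed to test compound for 48 hours across five concentrations. GI50 = concentration required for 50% inhibition of growth. TGI: concentration producing complete growth inhibition.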 Where a SMILES comes first, the peptide text is derived from it. [ ]: non-standard residue; d: D form.

Experiments:
Experiment in all cases: inhibition of tumour cell growth, NCI panel, 48 h
BT-549 breast = test system: BT-549 breast
MCF7 breast = test system: MCF7 breast
MDA-MB-231 breast = test system: MDA-MB-231 breast
MDA-N = test system: MDA-N
T-47D breast = test system: T-47D breast
LXFL 529 NSCLC = test system: LXFL 529 NSCLC
DLD-1 colon = test system: DLD-1 colon
XF 498 CNS = test system: XF 498 CNS

Structure (SMILES) | TGI (BT-549 breast) [µM] | TGI (MCF7 breast) [µM] | TGI (MDA-MB-231 breast) [µM] | TGI (MDA-N) [µM] | TGI (T-47D breast) [µM] | TGI (LXFL 529 NSCLC) [µM] | TGI (DLD-1 colon) [µM] | TGI (XF 498 CNS) [µM] | other results
O=C1C(OC(=O)c2ccccc2)=C(c2ccc(O)cc2)C(=O)C(OC(=O)c2ccccc2)=C1c1ccc(O)cc1 | > 100 | > 100 | > 100 | > 100 | > 100 |  |  |  | 
CC(=O)[O][Hg][c]1s[c]([Hg][O]C(C)=O)[c]([Hg][O]C(C)=O)[c]1[Hg][O]C(C)=O |  |  |  |  |  | 9.72 |  |  | GI50 (LXFL 529 NSCLC): 1.79 µM
COC(=O)C(C)Oc1ccc(O)cc1 (stereo not given) |  |  |  |  |  | > 100 | > 100 |  | 
O=C(N/C(=C\c1ccc(F)cc1)c1nc2ccccc2[nH]1)c1ccccc1 |  |  |  |  |  | > 100 | > 100 | > 100 | 
CCCC(=O)OC(OC(=O)CCC)c1ccc([N+](=O)[O-])o1 | > 100 | 35.4 | 68 | 46.3 | 61.5 |  |  |  | 
C=CCO[C@H]1CC[C@@]2(C)C(CC[C@]3(C)C2CC=C2[C@@H]4[C@@H](C)C(C)CC[C@]4(C(=O)O)CCC23C)C1(C)C (stereo not given in full) |  |  |  |  |  | 26.9 | 32.1 | 20.2 | 
COC(=O)C(=O)C(C#N)c1c(Cl)cccc1Cl (stereo not given) |  |  |  |  |  | > 100 | > 100 | > 100 | 
CN(C)C(=S)/N=c1\ss/c(=N\S(=O)(=O)c2ccccc2)n1C |  |  |  |  |  | > 100 | > 100 | > 100 | 
CSCC[C@H](NC(=O)[C@@H](N)CC(N)=O)C(=O)N[C@@H](Cc1c[nH]c2ccccc12)C(=O)N[C@@H](CCC(N)=O)C(=O)N[C@@H](CCC(=O)O)C(=O)N[C@H](C(=O)NCC(=O)N[C@@H](CCCCN)C(=O)N[C@H](C)C(=O)O)C(C)C (H-NMWQEVGK[dA]-OH) |  | > 100 | > 100 | > 100 | > 100 |  |  |  | 
O=C1C(=Cc2ccc(F)cc2)C(=O)c2ccccc21 |  |  |  |  |  | > 100 | > 100 | > 100 | 
C/C(=N\Nc1n[nH]c(=S)n1N)c1c(O)cc(C)oc1=O |  |  |  |  |  | > 100 | > 100 |  | 
C=C1C(=O)OC2(C)CCC1CC1OC1(C)CCC=C(C)CCC2O (stereo not given) | > 100 | > 100 | > 100 | 97.4 | > 100 |  |  |  | 
CC1(C2CCC3(C)C(C2)C3Sc2ccccc2)OCCO1 (stereo not given) |  |  |  |  |  | > 100 | 92.2 | 40.7 | 
NC(=O)c1nc(-c2ccc(Cl)c(Cl)c2)nc2ccccc12 |  |  |  |  |  | > 100 | > 100 | > 100 | 
CCOc1ccccc1N=Cc1c2ccccc2cc2ccccc12 | 70.1 | > 79.8 | 67.4 | 53.3 | 64.1 |  |  |  | 
COc1ccc2c(c1)[nH]c1c3ccc(OC)cc3oc(=O)c21 | > 100 | > 100 | > 100 | > 100 | > 100 |  |  |  | 

Structure (SMILES) | TGI (BT-549 breast) [µM] | TGI (MCF7 breast) [µM] | TGI (MDA-MB-231 breast) [µM] | TGI (MDA-N) [µM] | TGI (T-47D breast) [µM] | TGI (LXFL 529 NSCLC) [µM] | TGI (DLD-1 colon) [µM] | TGI (XF 498 CNS) [µM] | other results
NC1=C(O)C(=O)C(c2c[nH]c3ccc(OCc4ccccc4)cc23)O1 (stereo not given) | > 100 | > 100 | > 100 | > 100 | > 100 |  |  |  | 
CCOc1ccccc1NC(=O)C1=C(C)NC(C)=C(C(=O)Nc2ccccc2OCC)C1c1cccc([N+](=O)[O-])c1 |  |  |  |  |  | > 100 | > 100 | > 100 | 
CCOC(=O)C(=O)Nc1nc2ccc(C)cc2s1 |  |  |  |  |  | > 100 | > 100 | > 100 | 
C1CC[N-]CC1.CC(=N\O)/C(C)=N/O.CC(=N\O)/C(C)=N/O.C[CH-]C(C)O.[Co+2] | 79.7 | 57.8 | 64 | 77 | 41.1 |  |  |  | GI50 (BT-549 breast): 28.5 µM; GI50 (MCF7 breast): 24.4 µM; GI50 (MDA-MB-231 breast): 27.2 µM; GI50 (MDA-N): 26.6 µM; GI50 (T-47D breast): 12.6 µM
Cc1nc(-n2nc(-c3ccccc3)cc2-c2ccccc2)sc1C(=O)CC(=O)C(=O)Nc1ccc(O)cc1 |  |  |  |  |  | > 100 | > 100 |  | 
O=C(CCc1cc(-c2ccc(F)cc2)n[nH]1)N(Cc1ccccc1)Cc1ccccc1 |  |  |  |  |  | > 100 |  | > 100 | 
CCCCOP1(=O)CC(C)=C(Cl)C(C)(OC)C1 (stereo not given) |  |  |  |  |  | > 100 | > 100 | > 100 | 
COc1cc(CCc2ccncc2)cc(OC)c1OC |  |  |  |  |  | > 100 | > 100 | > 100 | 
CC/C(C)=C1\CCC(CN(C)C)C1=O (stereo not given) |  |  |  |  |  | 29.9 | 30.5 | 34.7 | 
Cc1ccc(C)c(NC(=O)C(=O)Nn2c(=S)[nH]c3ccccc3c2=O)c1 |  |  |  |  |  | > 100 | > 100 |  | 
C[C@H]1CC[C@@H]2[C@@H](C)[C@H]3[C@H](C[C@H]4[C@@H]5CC=C6C[C@@H](O)CC[C@]6(C)[C@H]5CC[C@]34C)N2C1 | > 100 | > 100 | > 100 | > 100 | > 100 |  |  |  | 
CC1OC(=O)N2CCC=CC12 (stereo not given) |  |  |  |  |  | > 100 | > 100 | > 100 | 
O=C1/C(=C/c2ccc(O)cc2)Oc2ccccc21 | > 100 | > 100 | > 100 | > 100 | > 100 |  |  |  | 
Cc1c(C2CCSc3ccccc3N2)sc2ccccc12 (stereo not given) | > 100 | > 100 | > 100 | > 100 | > 100 |  |  |  | 
Cc1ccc([N+]2=NC(c3ccccc3)=NN(c3ccccc3)C2)cc1 |  |  |  |  |  | > 100 | > 100 | > 100 | 
N#C/C(=C1\OC(N)=C(c2ccc(Cl)cc2)C1=O)c1ccc(Cl)cc1 |  |  |  |  |  | 24.3 | 30.9 |  | 
